Source: patent US20240158370A1, “CK1 alpha AND DUAL CK1 alpha / GSPT1 DEGRADING COMPOUNDS” (Innovo Therapeutics, Inc., priority 2022, published 2024)

Legend:
CK1α = target: T1, CK1α (Homo sapiens, UniProt P48729+Q96SW2); experiment: HiBiT degradation assay, CK1α, Procedure A; assay type: cell-based; conditions: six hours
T1 construct: CSNK1A1-HiBit KI HEK293(LgBit) Cells; host or cells: HEK293(LgBit) knock-in cells
In short: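 Six-hour treatment at 37° C, ten doses between 10 μM and 0.005 μM, then HiBiT lytic luminescence. Fitted DC50 and Ymin.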

GSPT1 = GSPT1 (Homo sapiens, UniProt P15170+Q96SW2); experiment: HiBiT degradation assay, GSPT1, Procedure B (Molt 4_hGSPT1_HiBIT cells); assay type: cell-based; parameters: Molt 4_hGSPT1_HiBIT N-terminus tagged cells were generated using CRISPR technology; endogenous in cells; host or cells: Molt 4 cells, CRISPR-edited; conditions: six hours
Sequence of GSPT1 (P15170 whole entry): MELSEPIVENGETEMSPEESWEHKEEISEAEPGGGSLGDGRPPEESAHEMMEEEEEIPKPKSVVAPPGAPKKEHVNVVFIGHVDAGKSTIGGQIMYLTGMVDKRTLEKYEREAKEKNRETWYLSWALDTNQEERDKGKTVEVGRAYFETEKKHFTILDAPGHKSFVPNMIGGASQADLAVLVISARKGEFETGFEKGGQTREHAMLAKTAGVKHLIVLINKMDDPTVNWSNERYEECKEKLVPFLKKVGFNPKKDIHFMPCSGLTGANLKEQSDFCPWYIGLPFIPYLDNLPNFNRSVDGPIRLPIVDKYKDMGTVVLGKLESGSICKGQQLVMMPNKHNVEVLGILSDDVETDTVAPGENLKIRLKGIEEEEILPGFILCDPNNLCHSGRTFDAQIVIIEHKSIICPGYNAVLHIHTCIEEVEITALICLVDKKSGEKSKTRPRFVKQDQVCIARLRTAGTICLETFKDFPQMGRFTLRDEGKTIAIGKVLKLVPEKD
Sequence of GSPT1 (Q96SW2 whole entry): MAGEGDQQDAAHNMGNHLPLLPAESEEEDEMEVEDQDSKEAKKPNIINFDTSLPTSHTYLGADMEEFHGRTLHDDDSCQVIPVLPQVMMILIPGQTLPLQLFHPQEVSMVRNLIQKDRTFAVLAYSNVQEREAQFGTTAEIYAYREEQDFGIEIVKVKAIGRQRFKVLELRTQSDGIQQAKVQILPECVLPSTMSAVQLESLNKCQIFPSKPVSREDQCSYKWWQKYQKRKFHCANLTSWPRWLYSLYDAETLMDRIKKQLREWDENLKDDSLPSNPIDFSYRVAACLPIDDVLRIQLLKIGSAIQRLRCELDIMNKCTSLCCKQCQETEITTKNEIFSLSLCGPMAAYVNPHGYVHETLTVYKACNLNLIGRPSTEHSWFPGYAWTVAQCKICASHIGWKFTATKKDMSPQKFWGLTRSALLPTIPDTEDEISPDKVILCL
Sequence of GSPT1 (Q16531 whole entry partner): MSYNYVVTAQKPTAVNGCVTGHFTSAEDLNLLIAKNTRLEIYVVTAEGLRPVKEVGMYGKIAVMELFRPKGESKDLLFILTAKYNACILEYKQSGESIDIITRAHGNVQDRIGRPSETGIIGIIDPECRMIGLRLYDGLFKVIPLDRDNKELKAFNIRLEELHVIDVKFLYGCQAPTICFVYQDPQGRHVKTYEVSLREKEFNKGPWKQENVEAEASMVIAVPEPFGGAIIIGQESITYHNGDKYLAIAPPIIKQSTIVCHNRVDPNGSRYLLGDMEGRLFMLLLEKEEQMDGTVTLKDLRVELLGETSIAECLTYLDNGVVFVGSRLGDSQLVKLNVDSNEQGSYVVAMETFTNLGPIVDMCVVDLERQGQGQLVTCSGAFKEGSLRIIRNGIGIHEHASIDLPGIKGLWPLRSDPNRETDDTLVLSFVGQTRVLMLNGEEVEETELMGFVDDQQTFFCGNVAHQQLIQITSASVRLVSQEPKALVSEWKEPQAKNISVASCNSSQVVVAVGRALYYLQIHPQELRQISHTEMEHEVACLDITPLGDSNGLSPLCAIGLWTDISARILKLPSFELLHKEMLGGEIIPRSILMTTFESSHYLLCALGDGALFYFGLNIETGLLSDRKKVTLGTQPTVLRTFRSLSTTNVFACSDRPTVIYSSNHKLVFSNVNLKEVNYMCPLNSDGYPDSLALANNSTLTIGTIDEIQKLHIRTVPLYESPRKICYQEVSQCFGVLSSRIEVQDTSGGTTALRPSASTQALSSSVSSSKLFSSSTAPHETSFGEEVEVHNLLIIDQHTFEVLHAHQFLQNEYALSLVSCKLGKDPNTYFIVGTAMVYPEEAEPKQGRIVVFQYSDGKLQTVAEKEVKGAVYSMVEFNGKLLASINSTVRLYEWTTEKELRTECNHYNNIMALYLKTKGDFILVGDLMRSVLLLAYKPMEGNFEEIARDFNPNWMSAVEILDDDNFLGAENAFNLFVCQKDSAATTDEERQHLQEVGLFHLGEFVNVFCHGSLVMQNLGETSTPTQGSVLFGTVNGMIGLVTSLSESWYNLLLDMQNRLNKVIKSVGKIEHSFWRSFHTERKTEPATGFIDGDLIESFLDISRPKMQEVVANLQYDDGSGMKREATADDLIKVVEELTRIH
Experimental: Molt 4_hGSPT1_HiBIT N-terminus tagged cells were generated using CRISPR technology. Cells were maintained in RPMI media (Thermo Fisher Scientific, Catalog #11875-093) containing 10% Fetal Bovine Serum (Thermo Fisher Scientific, Catalog #16140071) 1% Penicillin-Streptomycin (Thermo Fisher Scientific, Catalog #25200056). Cells were maintained at 37° C. in a 5% CO2 environment.
Compounds were spotted onto Cornin 384-Well, Cell Culture-Treated, Flat-Bottom, Low Flange Microplate (Fisher Scientific, Catalog #07-201-013) using a Tecan D300e digital dispenser. Ten-point dose response curves spanning from 10 μM to 0.005 μM with a 0.1% DMSO tolerance were used.
Cells were centrifuged for 5 minutes at 1200 RPMs. Cell culture media was aspirated off and cells were resuspended with RPMI+10% FBS. Cell density was determined using a Denovix CellDrop BF cell counter. Cell density was adjusted to 1×10^6 cells/ml. 40 μl of cells was added to compound treated tissue culture plates and incubated for six hours at 37° C. After six hours, cell culture plates were removed from tissue culture incubator and cooled to room temperature. 40 μl of Nano-GloHiBiT Lytic Detection Reagent (Promega, Catalog #N3040) was added to each well. Plates were placed on an orbital shaker (600 rpm) for 20 minutes. Luminescence was measured using an Envsion plate reader (Perkin Elmer). IC50 curves and Ymin were generated using a 4-parameter curve fit with GraphPad Prism software (Prism Corporation).
Results from the HiBiT assay (DC50 (nM) and Ymin (% remaining)) are shown below. All CK1α data was generated according to Procedure A. GSPT1 data for Examples 1-600, 603-620 and 703-705 was generated according to Procedure A. GSPT1 data for Examples 601, 621-702 and 706-735 was generated according to Procedure B.

T1 sequence (P48729 whole entry): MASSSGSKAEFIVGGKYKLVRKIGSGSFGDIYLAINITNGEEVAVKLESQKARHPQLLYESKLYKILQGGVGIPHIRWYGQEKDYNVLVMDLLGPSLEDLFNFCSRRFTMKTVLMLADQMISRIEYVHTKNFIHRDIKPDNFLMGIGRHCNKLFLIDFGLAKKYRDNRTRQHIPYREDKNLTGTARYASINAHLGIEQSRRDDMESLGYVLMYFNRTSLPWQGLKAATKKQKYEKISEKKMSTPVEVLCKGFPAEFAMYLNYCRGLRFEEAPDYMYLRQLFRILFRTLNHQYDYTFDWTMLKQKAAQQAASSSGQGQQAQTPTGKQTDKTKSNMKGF
T1 sequence (Q96SW2 whole entry): as the sequence (Q96SW2 whole entry) above
T1 sequence (Q16531 whole entry partner): as the sequence (Q16531 whole entry partner) above

Compound | CK1α Ymin (CK1α) | DC50 (CK1α) [nM] | DC50 (GSPT1) [nM] | GSPT1 Ymin (GSPT1)
Cn1cc(-c2ccc3c(c2)CN(C2CCC(=O)NC2=O)C3=O)nc1-c1cccc(F)c1C#N (stereo not drawn) [Example 641] | C (C = 0-10% remaining) | < 25 | ≥ 25 | F (F = >75-100% remaining)
COc1ccc(Cl)cc1-c1nc(-c2ccc3c(c2)CN(C2CCC(=O)NC2=O)C3=O)cn1C (stereo not drawn) [Example 643] | D (D = >10- 25% remaining) | < 25 | ≥ 25 | F (F = >75-100% remaining)
Cn1cc(-c2ccc3c(c2)CN(C2CCC(=O)NC2=O)C3=O)nc1-c1ccc(Cl)cc1F (stereo not drawn) [Example 644] | D (D = >10- 25% remaining) | < 25 | ≥ 25 | F (F = >75-100% remaining)
Cn1cc(-c2ccc3c(c2)CN(C2CCC(=O)NC2=O)C3=O)nc1-c1ccccc1C(F)(F)F (stereo not drawn) [Example 649] | D (D = >10- 25% remaining) | < 25 | < 25 | E (E = >25-75% remaining)
Cn1cc(-c2ccc3c(c2)CN(C2CCC(=O)NC2=O)C3=O)nc1-c1ccc2ccccc2c1 (stereo not drawn) [Example 652] | D (D = >10- 25% remaining) | < 25 | < 25 | F (F = >75-100% remaining)
Cn1cc(-c2ccc3c(c2)CN(C2CCC(=O)NC2=O)C3=O)nc1-c1ccc(C#N)cc1F (stereo not drawn) [Example 654] | D (D = >10- 25% remaining) | < 25 | < 25 | F (F = >75-100% remaining)
Cn1cc(-c2ccc3c(c2)CN(C2CCC(=O)NC2=O)C3=O)nc1-c1ccc(C#N)c(F)c1 (stereo not drawn) [Example 655] | E (E = >25-75% remaining) | < 25 | ≥ 25 | F (F = >75-100% remaining)
Cn1cc(-c2ccc3c(c2)CN(C2CCC(=O)NC2=O)C3=O)nc1-c1ccc(CO)cc1 (stereo not drawn) [Example 657] | D (D = >10- 25% remaining) | < 25 | ≥ 25 | F (F = >75-100% remaining)
Cn1cc(-c2ccc3c(c2)CN(C2CCC(=O)NC2=O)C3=O)nc1-c1ccc2nccn2c1 (stereo not drawn) [Example 658] | D (D = >10- 25% remaining) | ≥ 25 | ≥ 25 | F (F = >75-100% remaining)
Cn1cc(-c2ccc3c(c2)CN(C2CCC(=O)NC2=O)C3=O)nc1-c1cncc2ccccc12 (stereo not drawn) [Example 659] | E (E = >25-75% remaining) | < 25 | ≥ 25 | F (F = >75-100% remaining)
Cn1cc(-c2ccc3c(c2)CN(C2CCC(=O)NC2=O)C3=O)nc1-c1ccc2ncccc2c1 (stereo not drawn) [Example 660] | D (D = >10- 25% remaining) | < 25 | < 25 | E (E = >25-75% remaining)
Cn1cc(-c2ccc3c(c2)CN(C2CCC(=O)NC2=O)C3=O)nc1-c1c[nH]c2ncccc12 (stereo not drawn) [Example 662] | E (E = >25-75% remaining) | < 25 | ≥ 25 | F (F = >75-100% remaining)
Cn1cc(-c2ccc3c(c2)CN(C2CCC(=O)NC2=O)C3=O)nc1-c1ccc(-n2cccn2)cc1 (stereo not drawn) [Example 665] | E (E = >25-75% remaining) | < 25 | ≥ 25 | D (D = >10- 25% remaining)
Cn1cc(-c2ccc3c(c2)CN(C2CCC(=O)NC2=O)C3=O)nc1-c1ccc(N2CCOCC2)cc1 (stereo not drawn) [Example 666] | E (E = >25-75% remaining) | < 25 | ≥ 25 | F (F = >75-100% remaining)
Cn1cc(-c2ccc3c(c2)CN(C2CCC(=O)NC2=O)C3=O)nc1-c1ccc(Cl)c(C(F)(F)F)c1 (stereo not drawn) [Example 667] | E (E = >25-75% remaining) | < 25 | < 25 | F (F = >75-100% remaining)
Cn1cc(-c2ccc3c(c2)CN(C2CCC(=O)NC2=O)C3=O)nc1-c1ccc(CN2CCOCC2)cc1 (stereo not drawn) [Example 668] | E (E = >25-75% remaining) | < 25 | ≥ 25 | F (F = >75-100% remaining)
Cn1cc(-c2ccc3c(c2)CN(C2CCC(=O)NC2=O)C3=O)nc1-c1cccc(C(N)=O)c1 (stereo not drawn) [Example 669] | E (E = >25-75% remaining) | ≥ 25 | ≥ 25 | F (F = >75-100% remaining)
Cn1cc(-c2ccc3c(c2)CN(C2CCC(=O)NC2=O)C3=O)nc1-c1ccc2c(c1)CCCO2 (stereo not drawn) [Example 671] | E (E = >25-75% remaining) | < 25 | ≥ 25 | F (F = >75-100% remaining)
Cn1cc(-c2ccc3c(c2)CN(C2CCC(=O)NC2=O)C3=O)nc1-c1cccc2cnccc12 (stereo not drawn) [Example 672] | E (E = >25-75% remaining) | < 25 | < 25 | F (F = >75-100% remaining)

Now from value to compound:

CK1α Ymin (CK1α) | DC50 (CK1α) [nM] | DC50 (GSPT1) [nM] | GSPT1 Ymin (GSPT1) | Compound
C (C = 0-10% remaining) | ≥ 25 | < 25 | E (E = >25-75% remaining) | Cn1cc(-c2ccc3c(c2)CN(C2CCC(=O)NC2=O)C3=O)nc1-c1cccc(O)c1 (stereo not drawn) [Example 642]
D (D = >10- 25% remaining) | < 25 | ≥ 25 | F (F = >75-100% remaining) | Cn1cc(-c2ccc3c(c2)CN(C2CCC(=O)NC2=O)C3=O)nc1-c1ccc(F)c(Cl)c1 (stereo not drawn) [Example 645]
C (C = 0-10% remaining) | < 25 | ≥ 25 | F (F = >75-100% remaining) | Cn1cc(-c2ccc3c(c2)CN(C2CCC(=O)NC2=O)C3=O)nc1-c1cccs1 (stereo not drawn) [Example 646]
D (D = >10- 25% remaining) | < 25 | ≥ 25 | F (F = >75-100% remaining) | Cn1cc(-c2ccc3c(c2)CN(C2CCC(=O)NC2=O)C3=O)nc1-c1ccc(F)cc1Cl (stereo not drawn) [Example 647]
D (D = >10- 25% remaining) | < 25 | < 25 | F (F = >75-100% remaining) | Cc1ccc(-c2nc(-c3ccc4c(c3)CN(C3CCC(=O)NC3=O)C4=O)cn2C)c(Cl)c1 (stereo not drawn) [Example 648]
D (D = >10- 25% remaining) | < 25 | < 25 | F (F = >75-100% remaining) | Cc1cccc(-c2nc(-c3ccc4c(c3)CN(C3CCC(=O)NC3=O)C4=O)cn2C)c1C (stereo not drawn) [Example 650]
D (D = >10- 25% remaining) | < 25 | < 25 | E (E = >25-75% remaining) | Cc1cccc(F)c1-c1nc(-c2ccc3c(c2)CN(C2CCC(=O)NC2=O)C3=O)cn1C (stereo not drawn) [Example 651]
D (D = >10- 25% remaining) | < 25 | ≥ 25 | F (F = >75-100% remaining) | Cn1cc(-c2ccc3c(c2)CN(C2CCC(=O)NC2=O)C3=O)nc1-c1ccc(F)cc1F (stereo not drawn) [Example 653]
E (E = >25-75% remaining) | < 25 | ≥ 25 | F (F = >75-100% remaining) | Cn1cc(-c2ccc3c(c2)CN(C2CCC(=O)NC2=O)C3=O)nc1-c1ccccc1F (stereo not drawn) [Example 656]
E (E = >25-75% remaining) | < 25 | ≥ 25 | F (F = >75-100% remaining) | Cn1cc(-c2ccc3c(c2)CN(C2CCC(=O)NC2=O)C3=O)nc1-c1ccc(Cl)c(F)c1 (stereo not drawn) [Example 661]
E (E = >25-75% remaining) | < 25 | < 25 | F (F = >75-100% remaining) | Cc1ccc(-c2nc(-c3ccc4c(c3)CN(C3CCC(=O)NC3=O)C4=O)cn2C)c(N)c1 (stereo not drawn) [Example 663]
E (E = >25-75% remaining) | < 25 | ≥ 25 | E (E = >25-75% remaining) | Cn1cc(-c2ccc3c(c2)CN(C2CCC(=O)NC2=O)C3=O)nc1-c1ccsc1 (stereo not drawn) [Example 664]
E (E = >25-75% remaining) | < 25 | ≥ 25 | F (F = >75-100% remaining) | Cc1ccc(-c2nc(-c3ccc4c(c3)CN(C3CCC(=O)NC3=O)C4=O)cn2C)c(F)c1 (stereo not drawn) [Example 670]
E (E = >25-75% remaining) | < 25 | < 25 | F (F = >75-100% remaining) | COc1ccccc1-c1nc(-c2ccc3c(c2)CN(C2CCC(=O)NC2=O)C3=O)cn1C (stereo not drawn) [Example 673]
